Source: patent US20250339569A1, “CARBONIC ANHYDRASE IX LIGANDS” (priority 2021, published 2025)
Starred links: 1 amine or outer side, 2 acyl side, 3 side chain; linkers in the order of their positions; H or OH if unused. Positions of bridges follow the written chain, without caps; N, C: chain ends. Non-standard residues stand in square brackets, D forms with d. Residues, ends and D or L forms follow the SMILES beside them. *: point of attachment. X57 = O=C(Cn1ccccc1=O)Nc1cccc(C[C@H](N[*:1])C(=O)[*:2])c1; DOTA = O=C(O)CN1CCN(CC(=O)O)CCN(CC(=O)*)CCN(CC(=O)O)CC1; mXylylene = c1cc(C[*:1])cc(C[*:2])c1; NMeY = CN[C@@H](Cc1ccc(O)cc1)C(=O)O; X2 = O=C(CN1CCC(N[*:1])CC1)[*:2]; NMeS = CN[C@@H](CO)C(=O)O; X42 = c1ccc2cc(CN*)ccc2c1; Ac6c = NC1(C(=O)O)CCCCC1; Dap = NC[C@H](N)C(=O)O; X45 = COCc1cc(CN*)on1; Bn = c1ccc(C*)cc1

The molecules below were run against T1, CAIX-expressing human HT-29 colorectal cancer cells (Homo sapiens, UniProt Q16790) (assay: FACS binding assay (IC50 determination, competition with tracer 3BP-2776 or 3BP-4149)). Conditions: FACS binding assay, HT-29 cells, competition with tracer 3BP-2776 (10 nM, biotin-labeled), 4° C., 1 hour; read-out: pIC50 category (activity) (converted).
T1 construct: CAIX-expressing human HT-29 colorectal cancer cells; host or cells: HT-29 human colorectal cancer cells
Summary of the method: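 HT-29 cells in FACS buffer (PBS, 1% FCS) at 500.000 cells/ml were exposed to compounds competing with a labelled tracer, with biotinylated compounds detected by 1 μg/mL APC-streptavidin for 30 min on ice. APC/Cy5 median fluorescence was read by flow cytometry and IC50 derived by 4PL fit.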

Row | IC50 [nM] | SMILES
1 | 100 to 794 | CC(C)C[C@@H]1NC(=O)[C@H](Cc2cccc(NC(=O)Cn3cc(C(=O)NO)nn3)c2)NC(=O)[C@H](CC(=O)O)NC(=O)[C@H]2CCCN2C(=O)[C@H](CCC(=O)O)NC(=O)[C@@H](NC(=O)[C@H](CCC(N)=O)NC(=O)CN2CCN(C(=O)CN3CCN(CC(=O)O)CCN(CC(=O)O)CCN(CC(=O)O)CC3)CC2)CSCc2cccc(c2)CSC[C@@H](C(N)=O)NC(=O)[C@H](CO)NC(=O)[C@H](Cc2c[nH]c3ccccc23)NC(=O)[C@H]([C@@H](C)O)NC1=O [3BP-4847]
2 | < 10 | CC(C)C[C@@H]1NC(=O)[C@H](Cc2c[nH]c3ccccc23)NC(=O)[C@H](CCC(=O)NCc2ccc3ccccc3c2)NC(=O)[C@H]2CCCN2C(=O)[C@H](CCC(=O)O)NC(=O)[C@@H](NC(=O)[C@H](Cc2ccc(O)cc2)NC(=O)[C@@H](NC(=O)CN2CCC(NC(=O)CN3CCN(CC(=O)O)CCN(CC(=O)O)CCN(CC(=O)O)CC3)CC2)C(C)C)CSCc2cccc(c2)CSC[C@@H](C(N)=O)NC(=O)[C@H](CO)NC(=O)[C@H](Cc2c[nH]c3ccccc23)NC(=O)[C@H]([C@@H](C)O)NC1=O [3BP-4215, DOTA-APAc-Val-Tyr-[Cys(3MeBn)-Glu-pro-Glu(NHMe2Nph)-Trp-Leu-Thr-Trp-Ser-Cys]-NH2] ({DOTA}-[X2]VYCE[dP]E(X42)WLTWSC-NH2; linker 4-13 via mXylylene)
3 | < 10 | CC(C)C[C@@H]1NC(=O)[C@H](CSCc2ccccc2)NC(=O)[C@H](CC(=O)O)NC(=O)[C@H]2CCCN2C(=O)[C@H](CCC(=O)O)NC(=O)[C@@H](NC(=O)[C@H](Cc2ccc(O)cc2)NC(=O)[C@@H](NC(=O)CN2CCC(NC(=O)CN3CCN(CC(=O)O)CCN(CC(=O)O)CCN(CC(=O)O)CC3)CC2)C(C)C)CSCc2cccc(c2)CSC[C@@H](C(N)=O)NC(=O)[C@H](CO)NC(=O)[C@H](Cc2c[nH]c3ccccc23)NC(=O)[C@H]([C@@H](C)O)NC1=O [3BP-4130] ({DOTA}-[X2]VYCE[dP]DC(Bn)LTWSC-NH2; linker 4-13 via mXylylene)
4 | < 10 | CC(C)C[C@@H]1NC(=O)[C@H](Cc2c[nH]c3ccccc23)NC(=O)[C@H](CC(=O)O)NC(=O)[C@H]2CCCN2C(=O)[C@H](CCC(=O)O)NC(=O)[C@@H]2CSCc3cccc(c3)CSC[C@@H](C(N)=O)NC(=O)[C@H](CCC(=O)NC[C@H](NC(=O)[C@@H](NC(=O)CN3CCC(NC(=O)CN4CCN(CC(=O)O)CCN(CC(=O)O)CCN(CC(=O)O)CC4)CC3)C(C)C)C(=O)N2)NC(=O)[C@H](Cc2c[nH]c3ccccc23)NC(=O)[C@H]([C@@H](C)O)NC1=O [3BP-4177] ({DOTA}-[X2]V[Dap]CE[dP]DWLTWEC-NH2; lactam 3-12; linker 4-13 via mXylylene)
5 | 10 to 79.4 | CC(=O)N[C@H](C(=O)N[C@@H](Cc1ccc(O)cc1)C(=O)N[C@H]1CSCc2cccc(c2)CSC[C@@H](C(N)=O)NC(=O)[C@H](CO)NC(=O)[C@H](Cc2c[nH]c3ccccc23)NC(=O)[C@@H]2CCC(=O)NCCCC[C@H](NC(=O)[C@H]3CCCN3C(=O)[C@H](CCC(=O)O)NC1=O)C(=O)N[C@@H](Cc1c[nH]c3ccccc13)C(=O)NC1(CCCCC1)C(=O)N2)C(C)C [3BP-3961] (Ac-VYCE[dP]KW[Ac6c]EWSC-NH2; linker 3-12 via mXylylene; lactam 6-9)
6 | < 10 | CC(C)C[C@@H]1NC(=O)[C@H](Cc2c[nH]c3ccccc23)NC(=O)[C@H](CC(=O)O)NC(=O)[C@H]2CCCN2C(=O)[C@H](CO)N(C)C(=O)[C@@H](NC(=O)[C@H](Cc2ccc(O)cc2)NC(=O)[C@@H](NC(=O)CN2CCC(NC(=O)CN3CCN(CC(=O)O)CCN(CC(=O)O)CCN(CC(=O)O)CC3)CC2)C(C)C)CSCc2cccc(c2)CSC[C@@H](C(N)=O)NC(=O)[C@H](CO)NC(=O)[C@H](Cc2c[nH]c3ccccc23)NC(=O)[C@H]([C@@H](C)O)NC1=O [3BP-4108] ({DOTA}-[X2]VYC[NMeS][dP]DWLTWSC-NH2; linker 4-13 via mXylylene)

Same assay, conditions: FACS binding assay, HT-29 cells, competition with tracer 3BP-4149 (3 nM, Cy5-labeled), 4° C., 1 hour; read-out: pIC50 category (activity) (converted)

Row | IC50 [nM] | SMILES
7 | 10 to 79.4 | CC(C)C[C@@H]1NC(=O)[C@H](Cc2cccc(NC(=O)Cn3ccccc3=O)c2)NC(=O)[C@H](CC(=O)O)NC(=O)[C@H]2CCCN2C(=O)[C@H](CCC(=O)O)NC(=O)[C@@H](NC(=O)[C@H](Cc2ccc(O)cc2)NC(=O)[C@@H](NC(=O)CN2CCC(NC(=O)CN3CCN(CC(=O)O)CCN(CC(=O)O)CCN(CC(=O)O)CC3)CC2)C(C)C)CSCc2cccc(c2)CSC[C@@H](C(N)=O)NC(=O)[C@H](CO)NC(=O)[C@H](Cc2c[nH]c3ccccc23)NC(=O)[C@H]([C@@H](C)O)NC1=O [3BP-4370] ({DOTA}-[X2]VYCE[dP]D[X57]LTWSC-NH2; linker 4-13 via mXylylene)
8 | 10 to 79.4 | COCc1cc(CNC(=O)CC[C@@H]2NC(=O)[C@H]3CCCN3C(=O)[C@H](CCC(=O)O)NC(=O)[C@@H](NC(=O)[C@H](Cc3ccc(O)cc3)NC(=O)[C@@H](NC(=O)CN3CCC(NC(=O)CN4CCN(CC(=O)O)CCN(CC(=O)O)CCN(CC(=O)O)CC4)CC3)C(C)C)CSCc3cccc(c3)CSC[C@@H](C(N)=O)NC(=O)[C@H](CO)NC(=O)[C@H](Cc3c[nH]c4ccccc34)NC(=O)[C@H]([C@@H](C)O)NC(=O)[C@H](CC(C)C)NC(=O)[C@H](Cc3c[nH]c4ccccc34)NC2=O)on1 [3BP-4339] ({DOTA}-[X2]VYCE[dP]E(X45)WLTWSC-NH2; linker 4-13 via mXylylene)

Same assay, conditions: FACS competition on HT-29 cells, Tracer ID 3BP-2776 (10 nM, biotin-labeled), 4° C., 1 hour; read-out: pIC50 category (activity) (converted)

Row | IC50 [nM] | SMILES
9 | 100 to 794 | CC(=O)N[C@H](C(=O)N[C@@H](Cc1ccc(O)cc1)C(=O)N[C@H]1CSCc2cccc(c2)CSC[C@@H](C(N)=O)NC(=O)[C@H](CCC(N)=O)NC(=O)[C@H](Cc2c[nH]c3ccccc23)NC(=O)[C@H]([C@@H](C)O)NC(=O)[C@@H](CC(C)C)NC(=O)[C@H](Cc2c[nH]c3ccccc23)NC(=O)[C@H](CC(=O)O)NC(=O)CNC(=O)[C@H](CCC(=O)O)NC1=O)C(C)C [3BP-3048] (Ac-VYCEGDW[dL]TWQC-NH2; linker 3-12 via mXylylene)
10 | < 10 | CC(=O)N[C@@H](CO)C(=O)N[C@@H](Cc1ccc(O)cc1)C(=O)N[C@H]1CSCc2cccc(c2)CSC[C@@H](C(N)=O)NC(=O)[C@H](CO)NC(=O)[C@H](Cc2c[nH]c3ccccc23)NC(=O)[C@H]([C@@H](C)O)NC(=O)[C@H](CC(C)C)NC(=O)[C@H](Cc2c[nH]c3ccccc23)NC(=O)[C@H](CC(=O)O)NC(=O)[C@H]2CCCN2C(=O)[C@H](CCC(=O)O)NC1=O [3BP-3566] (Ac-SYCE[dP]DWLTWSC-NH2; linker 3-12 via mXylylene)
11 | 100 to 794 | CC(=O)N[C@H](C(=O)N[C@H](Cc1ccc(O)cc1)C(=O)N[C@H]1CSCc2cccc(c2)CSC[C@@H](C(N)=O)NC(=O)[C@H](CCC(N)=O)NC(=O)[C@H](Cc2c[nH]c3ccccc23)NC(=O)[C@H]([C@@H](C)O)NC(=O)[C@H](CC(C)C)NC(=O)[C@H](Cc2c[nH]c3ccccc23)NC(=O)[C@H](CC(=O)O)NC(=O)CNC(=O)[C@H](CCC(=O)O)NC1=O)C(C)C [3BP-3044] (Ac-V[dY]CEGDWLTWQC-NH2; linker 3-12 via mXylylene)
12 | < 10 | CC(=O)N[C@H](C(=O)N(C)[C@@H](Cc1ccc(O)cc1)C(=O)N[C@H]1CSCc2cccc(c2)CSC[C@@H](C(N)=O)NC(=O)[C@H](CO)NC(=O)[C@H](Cc2c[nH]c3ccccc23)NC(=O)[C@H]([C@@H](C)O)NC(=O)[C@H](CC(C)C)NC(=O)[C@H](Cc2c[nH]c3ccccc23)NC(=O)[C@H](CC(=O)O)NC(=O)[C@H]2CCCN2C(=O)[C@H](CCC(=O)O)NC1=O)C(C)C [3BP-3589] (Ac-V[NMeY]CE[dP]DWLTWSC-NH2; linker 3-12 via mXylylene)
